# Patent US20160221921A1, “SKIN WHITENING AGENT CONTAINING NOVEL CYCLIC COMPOUND” (RNS CO.,LTD., priority 2013, published 2016)
# How the values were obtained:
# [1] = test system: B-16 mouse melanoma cells; assay: Melanin generation inhibitory effects in terms of cells; assay type: cell-based; conditions: 72 h, 5 μg/ml, cultured for 3 days, relative to control, read-out: Inhibition rate (%) of melanin generation
# Method: Each of the compounds prepared according to the procedures described in Examples 1 to 29 and hydroquinone were added to a culture solution containing B-16 mouse melanoma cells, followed by experiments to determine whitening effects in terms of cells (Lotan R., Lotan D. Cancer Res., 40, pp. 3345-3350, 1980). After treating the compounds to have final concentrations of […] and […], respectively, each of these compounds was added to a culture medium containing B-16 melanoma cells and cultured for 3 days. Then, these cells were treated using trypsin, separated from a culture vessel and centrifuged, then, melanin was extracted from the cells. Melanin was dissolved by adding 1 ml of 1N sodium hydroxide solution to the extract and subjected to measurement of absorbance at 475 nm, and an amount of the generated melanin was expressed by an absorbance per unit number of cells (10^6 cells) (this procedure was repeated three times). An amount of the generated melanin relative to control was calculated as an inhibition rate (%), and results thereof are shown in Table 1 below.
# [2] = test system: B-16 mouse melanoma cells; assay: as above; assay type: cell-based; conditions: for inhibition at 20 µg/mL: 20 μg/ml
# [3] = test system: B-16 mouse melanoma cells; conditions: at 1 μg/ml or more
# [4] = Mus musculus, 72 h, cultured for 3 days, relative to control, read-out: Inhibition rate (%) of melanin generation
Compound,inhibition at 5 µg/mL [1] [%],"inhibition at 20 µg/mL [2, 4] [%]",further results
"CCCCCOC(=O)c1ccncc1OCCCCC [Example 18, 3-pentyloxy-4-pyridinecarboxylic acid pentyl ester]",42,71,
"CCCCCOC(=O)c1ccccc1OCCCCC [Example 4, 2-pentyloxy benzoic acid pentyl ester]",54,65,
"CCCCOC(=O)c1ccccc1OCCCC [Example 3, 2-butoxy benzoic acid butyl ester]",45,64,
"CCCCCOc1ccccc1CCC [Example 25, 1-pentyloxy-2-propyl-benzene]",16,31,
"CCCCCCOC(=O)c1ccccc1OCCCCCC [Example 5, 2-hexyloxy benzoic acid hexyl ester]",52,67,
"CCCCCOc1cc2ccccc2cc1C(C)=O [Example 22, 1-(3-pentyloxy-naphthalen-2-yl)-ethanone]",19,37,
"CCCCOC(=O)c1cccc(OCCCC)c1 [Example 10, 3-butoxy benzoic acid butyl ester]",38,54,
"CCCCCOC(=O)c1c(OCCCCC)cnc2ccccc12 [Example 19, 3-pentyloxy-quinoline-4-carboxylic acid pentyl ester]",38,59,
"CCOC(=O)c1ccccc1OCC [Example 1, 2-ethoxy benzoic acid ethyl ester]",31,46,
"CCCCCOC(=O)c1cccc(OCCCCC)c1 [Example 11, 3-pentyloxy benzoic acid pentyl ester]",49,62,
"CCCCCOc1cccc(C(C)=O)c1 [Example 21, 1-(3-pentyloxy-phenyl)-ethanone]",25,45,
"CCCCC(CC)COC(=O)c1cccc(O)c1 (centres unmarked) [Example 29, 3-hydroxy benzoic acid 2-ethylhexyl ester]",26,37,
"CCCCC(CC)C(=O)Oc1ccccc1C(C)=O (centres unmarked) [Example 24, 2-ethylhexanoic acid 2-acetyl-phenyl ester]",19,38,
"CCCCCOC(=O)c1cc2ccccc2cc1OCCCCC [Example 17, 3-pentyloxy-2-naphthoic acid pentyl ester]",38,52,
"CCCCCOc1ccccc1C(C)=O [Example 20, 1-(2-pentyloxy-phenyl)-ethanone]",24,41,
"CCCCCOC(=O)c1cc(C(C)=O)ccc1OCCCCC [Example 15, 5-acetyl-2-pentyloxy benzoic acid pentyl ester]",39,57,
"CCCCCOC(=O)c1ccc2ccccc2c1OCCCCC [Example 16, 1-pentyloxy-2-naphthoic acid pentyl ester]",41,52,
"CCCCC(CC)C(=O)Oc1ccccc1CCC (centres unmarked) [Example 26, 2-ethylhexanoic acid 2-propyl-phenyl ester]",24,35,
"CCCOC(=O)c1cccc(OCCC)c1 [Example 9, 3-propoxy benzoic acid propyl ester]",29,48,
"CCCCCCCCOC(=O)c1cccc(OCCCCCCCC)c1 [Example 13, 3-octyloxy benzoic acid octyl ester]",29,41,
"CCCCCCCCCCOC(=O)c1cccc(OCCCCCCCCCC)c1 [Example 14, 3-decyloxy benzoic acid decyl ester]",21,32,
"CCCCCCCCCCOC(=O)c1ccccc1OCCCCCCCCCC [Example 7, 2-decyloxy benzoic acid decyl ester]",22,35,
"CCCCCCCCOC(=O)c1ccccc1OCCCCCCCC [Example 6, 2-octyloxy benzoic acid octyl ester]",41,52,
"CCCCC(CC)C(=O)Oc1cccc(CCC)c1 (centres unmarked) [Example 27, 2-ethylhexanoic acid 3-propyl-phenyl ester]",23,41,
"Oc1ccc(O)cc1 [Hydroquinone, hydroquinone, reference compound]",,,"cytotoxicity [3]: serious cytotoxicity; Inhibition rate (%) of melanin generation ([2]; 5 μg/ml, cultured for 3 days, relative to control): Apoptosis; inhibition at 1 µg/mL ([2]; Mus musculus, 72 h, 1 μg/ml, cultured for 3 days, relative to control, read-out: Inhibition rate (%) of melanin generation): 48%; melanin generation inhibitory effects (in words) ([2]; cultured mouse melanoma cells): strong effects of inhibiting melanin generation at a low concentration"
"CCCCCCOC(=O)c1cccc(OCCCCCC)c1 [Example 12, 3-hexyloxy benzoic acid hexyl ester]",46,61,
"CCCCC(CC)COC(=O)c1ccccc1O (centres unmarked) [Example 28, 2-hydroxy benzoic acid 2-ethylhexyl ester]",27,39,
"CC(=O)Oc1ccccc1C(C)=O [Example 23, acetic acid 2-acetyl-phenyl ester]",27,41,
"CCCOC(=O)c1ccccc1OCCC [Example 2, 2-propoxy benzoic acid propyl ester]",41,52,
"CCOC(=O)c1cccc(OCC)c1 [Example 8, 3-ethoxy benzoic acid ethyl ester]",27,42,
